Measured values: PubChem BioAssay (NCI)
Several values for one entry are separate records, joined by “and”; a condition that tells them apart may be missing. Equal entries are not always repeated.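 Five concentrations, 48 hours, 96-well plates. At the GI50, growth is halved. TGI: total growth inhibition.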

Key:
Assay in all cases: DTP human tumour cell line panel, 48 h
DU-145 prostate = test system: DU-145 prostate
SW-620 colon = test system: SW-620 colon
HS 578T breast = test system: HS 578T breast
UACC-257 melanoma = test system: UACC-257 melanoma
CCRF-CEM leukemia = test system: CCRF-CEM leukemia
K-562 leukemia = test system: K-562 leukemia
RPMI-8226 leukemia = test system: RPMI-8226 leukemia
HOP-62 NSCLC = test system: HOP-62 NSCLC
BT-549 breast = test system: BT-549 breast
MDA-MB-435 = test system: MDA-MB-435
ACHN renal = test system: ACHN renal
EKVX NSCLC = test system: EKVX NSCLC
LOX IMVI melanoma = test system: LOX IMVI melanoma
SK-MEL-5 melanoma = test system: SK-MEL-5 melanoma
RXF 393 renal = test system: RXF 393 renal
NCI/ADR-RES ovarian = test system: NCI/ADR-RES ovarian
A498 renal = test system: A498 renal
NCI-H226 lung = test system: NCI-H226 lung
NCI-H23 lung = test system: NCI-H23 lung
MALME-3M melanoma = test system: MALME-3M melanoma
SF-539 CNS = test system: SF-539 CNS
MCF7 breast = test system: MCF7 breast
KM12 colon = test system: KM12 colon
TK-10 renal = test system: TK-10 renal
786-0 renal = test system: 786-0 renal
NCI-H460 lung = test system: NCI-H460 lung
PC-3 prostate = test system: PC-3 prostate
IGROV1 ovarian = test system: IGROV1 ovarian
OVCAR-4 ovarian = test system: OVCAR-4 ovarian
SR leukemia = test system: SR leukemia
MDA-MB-468 breast = test system: MDA-MB-468 breast
COLO 205 colon = test system: COLO 205 colon
M14 melanoma = test system: M14 melanoma
MOLT-4 leukemia = test system: MOLT-4 leukemia
HT29 colon = test system: HT29 colon
SK-MEL-28 melanoma = test system: SK-MEL-28 melanoma
A549 NSCLC = test system: A549 NSCLC
SNB-19 CNS = test system: SNB-19 CNS
SK-OV-3 ovarian = test system: SK-OV-3 ovarian
UACC-62 melanoma = test system: UACC-62 melanoma
OVCAR-3 ovarian = test system: OVCAR-3 ovarian
T-47D breast = test system: T-47D breast
HL-60(TB) leukemia = test system: HL-60(TB) leukemia
HCT-15 colon = test system: HCT-15 colon
HCT-116 colon = test system: HCT-116 colon
CAKI-1 renal = test system: CAKI-1 renal
U251 CNS = test system: U251 CNS
SN12C renal = test system: SN12C renal
HOP-92 NSCLC = test system: HOP-92 NSCLC
SF-268 CNS = test system: SF-268 CNS
HCC-2998 colon = test system: HCC-2998 colon
NCI-H522 lung = test system: NCI-H522 lung
OVCAR-5 ovarian = test system: OVCAR-5 ovarian
OVCAR-8 ovarian = test system: OVCAR-8 ovarian
SF-295 CNS = test system: SF-295 CNS

CC[C@]12C=CCN3CC[C@@]4(c5ccc(OC)cc5N(C)[C@H]4[C@@](O)(C(=O)OC)[C@@H]1OC(=O)CCCC[P+](c1ccc(F)cc1)(c1ccc(F)cc1)c1ccc(F)cc1)[C@@H]32
GI50 (DU-145 prostate): 35.4 µM
TGI (DU-145 prostate): > 100 µM
GI50 (SW-620 colon): 16.5 µM
TGI (SW-620 colon): 37.8 µM
GI50 (HS 578T breast): 16.9 µM
TGI (HS 578T breast): 37.5 µM
GI50 (UACC-257 melanoma): 5.58 µM
TGI (UACC-257 melanoma): 19.2 µM
GI50 (CCRF-CEM leukemia): 13.6 µM
TGI (CCRF-CEM leukemia): 30.3 µM
GI50 (K-562 leukemia): 11.3 µM
TGI (K-562 leukemia): 38.7 µM
GI50 (RPMI-8226 leukemia): 2.97 µM
TGI (RPMI-8226 leukemia): 14.9 µM
GI50 (HOP-62 NSCLC): 25.5 µM
TGI (HOP-62 NSCLC): 73.4 µM
GI50 (BT-549 breast): 12.9 µM
TGI (BT-549 breast): 27.1 µM
GI50 (MDA-MB-435): 12.9 µM
TGI (MDA-MB-435): 28.4 µM
GI50 (ACHN renal): > 100 µM
TGI (ACHN renal): > 100 µM
GI50 (EKVX NSCLC): 21 µM
TGI (EKVX NSCLC): > 100 µM
GI50 (LOX IMVI melanoma): 16.8 µM
TGI (LOX IMVI melanoma): 30.8 µM
GI50 (SK-MEL-5 melanoma): 17.1 µM
TGI (SK-MEL-5 melanoma): 30.8 µM
GI50 (RXF 393 renal): 13.3 µM
TGI (RXF 393 renal): 31.6 µM
GI50 (NCI/ADR-RES ovarian): > 100 µM
TGI (NCI/ADR-RES ovarian): > 100 µM
GI50 (A498 renal): > 100 µM
TGI (A498 renal): > 100 µM
GI50 (NCI-H226 lung): 27.3 µM
TGI (NCI-H226 lung): > 100 µM
GI50 (NCI-H23 lung): 20.1 µM
TGI (NCI-H23 lung): 53.5 µM
GI50 (MALME-3M melanoma): 13.5 µM
TGI (MALME-3M melanoma): 27.3 µM
GI50 (SF-539 CNS): 21.9 µM
TGI (SF-539 CNS): 62.4 µM
GI50 (MCF7 breast): 11.5 µM
TGI (MCF7 breast): 24.5 µM
GI50 (KM12 colon): 13.4 µM
TGI (KM12 colon): 27.7 µM
GI50 (TK-10 renal): 21.2 µM
TGI (TK-10 renal): 52.6 µM
GI50 (786-0 renal): 34.1 µM
TGI (786-0 renal): > 100 µM
GI50 (NCI-H460 lung): 29.4 µM
TGI (NCI-H460 lung): > 100 µM
GI50 (PC-3 prostate): 16.4 µM
TGI (PC-3 prostate): 56.7 µM
GI50 (IGROV1 ovarian): 10.8 µM
TGI (IGROV1 ovarian): 24.3 µM
GI50 (OVCAR-4 ovarian): 25.1 µM
TGI (OVCAR-4 ovarian): > 100 µM
GI50 (SR leukemia): 14.5 µM
TGI (SR leukemia): 31.9 µM
GI50 (MDA-MB-468 breast): 2.61 µM
TGI (MDA-MB-468 breast): 11.1 µM
GI50 (COLO 205 colon): 4.63 µM
TGI (COLO 205 colon): 16.4 µM
GI50 (M14 melanoma): 14.7 µM
TGI (M14 melanoma): 30 µM
GI50 (MOLT-4 leukemia): 14.7 µM
TGI (MOLT-4 leukemia): 32.6 µM
GI50 (HT29 colon): 15.4 µM
TGI (HT29 colon): 38.8 µM
GI50 (SK-MEL-28 melanoma): 8.28 µM
TGI (SK-MEL-28 melanoma): 20.7 µM
GI50 (A549 NSCLC): 33.8 µM
TGI (A549 NSCLC): > 100 µM
GI50 (SNB-19 CNS): 13 µM
TGI (SNB-19 CNS): 26.7 µM
GI50 (SK-OV-3 ovarian): 23.5 µM
TGI (SK-OV-3 ovarian): 66.5 µM
GI50 (UACC-62 melanoma): 11.3 µM
TGI (UACC-62 melanoma): 23.5 µM
GI50 (OVCAR-3 ovarian): 9.3 µM
TGI (OVCAR-3 ovarian): 23.3 µM
GI50 (T-47D breast): 11.5 µM
TGI (T-47D breast): 43.2 µM
GI50 (HL-60(TB) leukemia): 2.11 µM
TGI (HL-60(TB) leukemia): 13.2 µM
GI50 (HCT-15 colon): > 100 µM
TGI (HCT-15 colon): > 100 µM
GI50 (HCT-116 colon): 25.9 µM
TGI (HCT-116 colon): > 100 µM
GI50 (CAKI-1 renal): > 100 µM
TGI (CAKI-1 renal): > 100 µM
GI50 (U251 CNS): 10.7 µM
TGI (U251 CNS): 23.3 µM
GI50 (SN12C renal): 28.6 µM
TGI (SN12C renal): > 100 µM
GI50 (HOP-92 NSCLC): 6.32 µM
TGI (HOP-92 NSCLC): 23.5 µM
GI50 (SF-268 CNS): 17.6 µM
TGI (SF-268 CNS): 38.3 µM
GI50 (HCC-2998 colon): 12.5 µM
TGI (HCC-2998 colon): 25.5 µM
GI50 (NCI-H522 lung): 5.44 µM
TGI (NCI-H522 lung): 20.2 µM
GI50 (OVCAR-5 ovarian): 29.1 µM
TGI (OVCAR-5 ovarian): > 100 µM
GI50 (OVCAR-8 ovarian): 29.4 µM
TGI (OVCAR-8 ovarian): > 100 µM
GI50 (SF-295 CNS): 30.6 µM
TGI (SF-295 CNS): > 100 µM

CCOC(=O)c1cc(C(=O)c2cc(OC)c(OC)c(OC)c2)n2ncccc12
GI50 (MDA-MB-468 breast): 0.248 µM
TGI (MDA-MB-468 breast): 32.2 µM

Cc1cc2nc3c4cc(O)ccc4n(CCN(C)C)c3nc2cc1C
GI50 (MDA-MB-468 breast): 0.816 µM
TGI (MDA-MB-468 breast): 2.78 µM

Cc1cc(O)c(=O)cc2c1C[C@H]1CC(C)(C)/C=C/C[C@]3(C)Oc4cc(=O)c(O)cc(C)c4C[C@H]3C[C@H](O)[C@@]1(C)O2
GI50 (MDA-MB-468 breast): < 0.0152 µM and 0.00703 µM
TGI (MDA-MB-468 breast): 0.243 µM and 0.106 µM

CC(=O)O[C@H]1C(=O)[C@@]2(C)C(C(OC(=O)c3ccccc3)[C@]3(O)C[C@H](OC(=O)C(OC(=O)CCCC(=O)NCCCN(C)C)C(NC(=O)c4ccccc4)c4ccccc4)C(C)=C1C3(C)C)C1(OC(C)=O)COC1C[C@@H]2O (stereo partly specified)
GI50 (MDA-MB-468 breast): < 0.01 µM
TGI (MDA-MB-468 breast): 10.4 µM

O=C(Cc1ccc(/C=C/C(=O)c2ncc[nH]2)cc1)Nc1ccc(F)cc1
GI50 (MDA-MB-468 breast): 0.974 µM
TGI (MDA-MB-468 breast): 3.14 µM

CCCCCCNC(=O)Oc1ccc(/C(=C(/C)c2ccc(OC)cc2)c2ccc(OCCN3CCCCCC3)cc2)cc1
GI50 (MDA-MB-468 breast): 2.04 µM
TGI (MDA-MB-468 breast): 4.76 µM

C/C(=N\NC(=S)N1CCCCC1)c1ccccn1
GI50 (MDA-MB-468 breast): < 0.01 µM
TGI (MDA-MB-468 breast): 0.135 µM

COc1cc(/C=C\c2cc(OC)c(OC)c(OC)c2)cc(N/C=C\C(=O)c2ccc(OC(F)(F)F)cc2)c1OC
GI50 (MDA-MB-468 breast): 3.16 µM
TGI (MDA-MB-468 breast): > 100 µM
